# Laboratory results taken from US20230303569A1, “HETEROCYCLIC COMPOUNDS AS THERAPEUTIC AGENTS” (Arisan Therapeutics Inc., priority 2021, published 2023).
# Like-named read-outs stand apart in the source and are kept apart here.
# Columns and labels:
# Assay type in all cases: cell-based
# [1] = target: T1, human Nav1.5 (late current) (Homo sapiens, UniProt Q14524); experiment: Nav1.5 Late Current Assay (QPatch HT whole-cell patch clamp, 30 nM ATX-II); settings: HEK293 cells stably expressing human Nav1.5, pH 7.3, late current with 30 nM ATX-II, read-out: percent inhibition hNav1.5 Late (5 uM)
# T1 construct: host or cells: HEK293
# Experimental: (§1) In vitro Na+ Current Inhibition Assays were performed by Eurofins Discovery (St Charles, MO). All compound functional activity determinations were determined through electrophysiological analyses of Na+ currents in HEK293 cells expressing a stably transfected Na+ channel (human Nav1.1, 1.2, 1.3, 1.5, 1.6, 1.7, or 1.8). After harvesting with Accutase cells are maintained in serum free medium at room temperature prior to electrophysiological recording utilizing the QPatch HT automated whole-cell patch-clamp platform (Sophion Bioscience, Woburn MA). Stock solution aliquots of the test compound are prepared in DMSO at 300× the final assay concentrations, and stored at −20° C. until the day of assay. On the day of the assay, an aliquot of the stock solution is thawed and diluted into external solution (137 mM NaCl, 4 mM KCl, 1 mM MgCl2, 1.8 mM CaCl2, 10 mM HEPES, 10 mM Glucose (pH 7.3, titrated with 10M NaOH) to make final test concentrations. A final concentration of 0.33% DMSO is maintained for each concentration of the assay compounds. Internal solution for recordings of Na+ consist consists of 100 mM CsF, 45 mM CsCl, 5 mM NaCl, 10 mM HEPES, 5 mM EGTA (pH 7.3, titrated with 1M CsOH).
# Onset and steady state induction of late Nav1.5 current was measured using a pulse pattern, repeated every 5 sec, consisting of a hyperpolarizing pulse to −120 mV for a 200 ms duration, depolarization to −15 mV amplitude for a 40 ms duration, followed by step to 40 mV for 200 ms and finally a 100 ms ramp (1.2 V/s) to a holding potential of −80 mV. Each concentration of compound was applied for 5 minutes. The assay was performed at room temperature. After establishing vehicle control condition, all further addition of external solutions contain 30 nM ATX-II to activate late currents. Each concentration of compound was also co-applied with 30 nM ATXII to estimate the Nav1.5 late current inhibition. […]. ATXII was used as the agonist positive control and was tested concurrently with the test compound. Ranolazine was used as the positive control and was tested concurrently with the test compound.
# Nav1.5 late current was measured as the total charge flowing through the Nav1.5 channels (area under the curve) 5 ms after the Nav1.5 peak current till the end of the test pulse and as charge at their maxima during the ramp. Individual cell results were normalized to their respective vehicle control and the results were averaged. The sodium current was assessed in 30 nM ATXII as vehicle control conditions and then at the end of each five (5) minute compound application in the presence of 30 nM ATXII. Individual cell result was normalized to 30 nM ATXII vehicle control amplitude and the mean±SEM calculated for each compound concentration.
# [2] = target: T2, human Nav1.5 (peak current) (Homo sapiens, UniProt Q14524); experiment: Nav1.5 Peak Current Assay (QPatch HT whole-cell patch clamp); settings: HEK293 cells stably expressing human Nav1.5, pH 7.3, peak current at step to -15 mV, read-out: percent inhibition hNav1.5 Peak (5 uM)
# T2 construct: host or cells: HEK293
# Experimental: as §1
# Onset and steady state block of peak Nav1.5 current was measured using a pulse pattern, repeated every 5 sec, consisting of a hyperpolarizing pulse to −120 mV for a 200 ms duration, depolarization to -15 mV amplitude for a 40 ms duration, followed by step to 40 mV for 200 ms and finally a 100 ms ramp (1.2 V/s) to a holding potential of −80 mV. Peak current was measured during the step to −15 mV.
# Each concentration of compound was applied for 5 minutes. The assay was performed at room temperature and Tetracaine was used concurrently as a positive control. Only current amplitudes in excess of 200 pA at the control stage were analyzed. The amplitude of the sodium current was calculated by measuring the difference between the peak inward current on stepping to −15 mV (i.e. peak of the current) and the leak current. The sodium current was assessed in vehicle control conditions and then at the end of each five (5) minute compound application. Individual cell result was normalized to the vehicle control amplitude and the mean±SEM calculated for each compound concentration.
# human Nav1.1 = target: T3, human Nav1.1 (Homo sapiens, UniProt P35498); experiment: Two pulse assay protocol, Nav1.1; settings: peak current
# T3 construct: host or cells: HEK293
# Experimental: (§2) In vitro Na+ Current Inhibition Assays were performed by Eurofins Discovery (St Charles, MO). All compound functional activity determinations were determined through electrophysiological analyses of Na+ currents in HEK293 cells expressing a stably transfected Na+ channel (human Nav1.1, 1.2, 1.3, 1.5, 1.6, 1.7, or 1.8). After harvesting with Accutase cells are maintained in serum free medium at room temperature prior to electrophysiological recording utilizing the QPatch HT automated whole-cell patch-clamp platform (Sophion Bioscience, Woburn MA). […]
# (§3) Two pulse assay protocol for human Nav1.1, 1.2, 1.3, 1.5, 1.6, 1.7, and 1.8 channels. […] Onset and steady state block of the sodium channel was measured using a pulse pattern, repeated every 20 seconds (s) from a holding potential of −120 mV for 100 ms, and then pulsed to 0 mV for 500 ms to inactivate the Na channels and facilitate inactivated state-dependent binding of the test compounds. […] Peak current was measured during the step to 0 mV at pulse 1 and 2 to measure tonic and state-dependent inhibition. Compound activities were assessed by dividing post current amplitude (at the end of each five (5) minute compound application) by the vehicle control amplitude and the mean calculated for each compound concentration. […] Current amplitudes in excess of 200 pA at the control stage were analyzed. […]
# human Nav1.2 = target: T4, human Nav1.2 (Homo sapiens, UniProt Q99250); experiment: Two pulse assay protocol, Nav1.2; settings: peak current
# T4 construct: host or cells: HEK293
# Experimental: as §1
# (§4) Two pulse assay protocol for human Nav1.1, 1.2, 1.3, 1.5, 1.6, 1.7, and 1.8 channels. Mammalian cultured cells expressing the indicated human Nav1.1, 1.2, 1.3, 1.5, 1.6, 1.7 or 1.8 channels were assayed using the The QPatch HT (Sophion Bioscience, Woburn MA) automated system with an intracellular solution (mM) of 100 CsF, 45 CsCl, 5 NaCl, 10 HEPES, 5 EGTA (pH 7.3, titrated with 1M CsOH) and extracellular solution (mM) of 137 NaCl, 4 KCl, 1 MgCl2, 1.8 CaCl2, 10 HEPES, 10 Glucose (pH 7.3, titrated with 10M NaOH). Onset and steady state block of the sodium channel was measured using a pulse pattern, repeated every 20 seconds (s) from a holding potential of −120 mV for 100 ms, and then pulsed to 0 mV for 500 ms to inactivate the Na channels and facilitate inactivated state-dependent binding of the test compounds. The cell membranes were then stepped back to −120 mV for 10 ms to recover from inactivation into resting or closed state (channels with test compound bound to them will not recover from inactivation and will not open) before stepping to 0 mV for 50 ms (pulse 2) to measure Na channels that are available to open. Peak current was measured during the step to 0 mV at pulse 1 and 2 to measure tonic and state-dependent inhibition. Compound activities were assessed by dividing post current amplitude (at the end of each five (5) minute compound application) by the vehicle control amplitude and the mean calculated for each compound concentration. Tetracaine was used as a positive control and was tested concurrently with the test compounds. Current amplitudes in excess of 200 pA at the control stage were analyzed. The amplitude of the current was calculated by measuring the difference between the peak inward current on stepping to 0 mV (i.e. peak of the current) and remaining current at the end of the step. The current was assessed in vehicle control conditions and then at the end of each five (5) minute compound application.
# human Nav1.3 = target: T5, human Nav1.3 (Homo sapiens, UniProt Q9NY46); experiment: Two pulse assay protocol, Nav1.3; settings: peak current
# T5 construct: host or cells: HEK293
# Experimental: as §2, §3
# human Nav1.6 = target: T6, human Nav1.6 (Homo sapiens, UniProt Q9UQD0); experiment: Two pulse assay protocol, Nav1.6; settings: 5 uM, peak current
# T6 construct: host or cells: HEK293
# T6 sequence (Q9UQD0 whole entry): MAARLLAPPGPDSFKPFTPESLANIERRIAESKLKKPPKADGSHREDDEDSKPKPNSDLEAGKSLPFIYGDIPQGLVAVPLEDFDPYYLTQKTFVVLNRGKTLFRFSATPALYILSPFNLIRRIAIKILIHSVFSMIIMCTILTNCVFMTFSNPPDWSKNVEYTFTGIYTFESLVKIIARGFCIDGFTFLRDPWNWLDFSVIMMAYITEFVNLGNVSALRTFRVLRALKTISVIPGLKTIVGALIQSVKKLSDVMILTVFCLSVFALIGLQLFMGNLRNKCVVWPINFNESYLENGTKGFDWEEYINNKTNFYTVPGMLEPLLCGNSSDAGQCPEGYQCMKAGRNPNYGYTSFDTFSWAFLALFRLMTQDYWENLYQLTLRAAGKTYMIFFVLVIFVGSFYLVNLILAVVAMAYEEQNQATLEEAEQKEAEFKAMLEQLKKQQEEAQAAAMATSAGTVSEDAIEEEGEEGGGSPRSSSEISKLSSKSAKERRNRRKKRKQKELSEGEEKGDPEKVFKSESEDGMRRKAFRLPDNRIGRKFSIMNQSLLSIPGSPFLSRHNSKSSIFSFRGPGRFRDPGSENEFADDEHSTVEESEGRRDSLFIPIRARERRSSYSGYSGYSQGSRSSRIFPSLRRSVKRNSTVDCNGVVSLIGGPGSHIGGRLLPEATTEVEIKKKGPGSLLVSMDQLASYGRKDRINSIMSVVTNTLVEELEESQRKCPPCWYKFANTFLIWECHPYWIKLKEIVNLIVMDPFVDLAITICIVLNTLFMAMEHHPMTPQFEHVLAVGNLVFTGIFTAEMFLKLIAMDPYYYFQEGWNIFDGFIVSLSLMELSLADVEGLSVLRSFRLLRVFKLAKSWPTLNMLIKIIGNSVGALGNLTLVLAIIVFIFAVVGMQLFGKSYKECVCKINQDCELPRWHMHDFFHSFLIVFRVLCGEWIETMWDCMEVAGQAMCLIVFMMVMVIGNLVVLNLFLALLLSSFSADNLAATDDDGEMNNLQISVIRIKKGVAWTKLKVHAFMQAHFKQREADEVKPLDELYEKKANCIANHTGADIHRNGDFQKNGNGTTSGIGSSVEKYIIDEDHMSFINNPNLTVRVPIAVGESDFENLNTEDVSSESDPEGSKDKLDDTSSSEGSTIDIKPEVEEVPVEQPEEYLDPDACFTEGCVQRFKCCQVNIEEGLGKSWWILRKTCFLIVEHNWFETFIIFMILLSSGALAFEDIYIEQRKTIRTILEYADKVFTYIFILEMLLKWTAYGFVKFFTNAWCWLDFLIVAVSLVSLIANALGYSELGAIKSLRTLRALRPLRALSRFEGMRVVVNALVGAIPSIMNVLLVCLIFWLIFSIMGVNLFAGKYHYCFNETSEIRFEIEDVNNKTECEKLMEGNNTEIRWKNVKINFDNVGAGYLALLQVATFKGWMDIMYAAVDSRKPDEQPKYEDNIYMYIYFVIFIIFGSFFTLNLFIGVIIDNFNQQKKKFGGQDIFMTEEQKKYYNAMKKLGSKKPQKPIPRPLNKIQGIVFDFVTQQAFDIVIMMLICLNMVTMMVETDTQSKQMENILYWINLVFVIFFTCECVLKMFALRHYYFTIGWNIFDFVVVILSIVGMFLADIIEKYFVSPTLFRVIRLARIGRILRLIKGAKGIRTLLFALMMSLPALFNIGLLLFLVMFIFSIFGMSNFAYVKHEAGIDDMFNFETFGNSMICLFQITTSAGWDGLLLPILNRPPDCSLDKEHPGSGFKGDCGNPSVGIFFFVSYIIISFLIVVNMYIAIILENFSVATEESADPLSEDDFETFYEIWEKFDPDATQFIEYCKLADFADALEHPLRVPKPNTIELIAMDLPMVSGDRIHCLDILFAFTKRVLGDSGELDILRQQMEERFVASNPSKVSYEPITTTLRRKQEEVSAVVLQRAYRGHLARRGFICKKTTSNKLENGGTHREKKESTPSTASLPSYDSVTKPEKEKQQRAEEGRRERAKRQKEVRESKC
# Experimental: as §1, §4
# human Nav1.7 = target: T7, human Nav1.7 (Homo sapiens, UniProt Q15858); experiment: Two pulse assay protocol, Nav1.7; settings: peak current
# T7 construct: host or cells: HEK293
# T7 sequence (Q15858 whole entry): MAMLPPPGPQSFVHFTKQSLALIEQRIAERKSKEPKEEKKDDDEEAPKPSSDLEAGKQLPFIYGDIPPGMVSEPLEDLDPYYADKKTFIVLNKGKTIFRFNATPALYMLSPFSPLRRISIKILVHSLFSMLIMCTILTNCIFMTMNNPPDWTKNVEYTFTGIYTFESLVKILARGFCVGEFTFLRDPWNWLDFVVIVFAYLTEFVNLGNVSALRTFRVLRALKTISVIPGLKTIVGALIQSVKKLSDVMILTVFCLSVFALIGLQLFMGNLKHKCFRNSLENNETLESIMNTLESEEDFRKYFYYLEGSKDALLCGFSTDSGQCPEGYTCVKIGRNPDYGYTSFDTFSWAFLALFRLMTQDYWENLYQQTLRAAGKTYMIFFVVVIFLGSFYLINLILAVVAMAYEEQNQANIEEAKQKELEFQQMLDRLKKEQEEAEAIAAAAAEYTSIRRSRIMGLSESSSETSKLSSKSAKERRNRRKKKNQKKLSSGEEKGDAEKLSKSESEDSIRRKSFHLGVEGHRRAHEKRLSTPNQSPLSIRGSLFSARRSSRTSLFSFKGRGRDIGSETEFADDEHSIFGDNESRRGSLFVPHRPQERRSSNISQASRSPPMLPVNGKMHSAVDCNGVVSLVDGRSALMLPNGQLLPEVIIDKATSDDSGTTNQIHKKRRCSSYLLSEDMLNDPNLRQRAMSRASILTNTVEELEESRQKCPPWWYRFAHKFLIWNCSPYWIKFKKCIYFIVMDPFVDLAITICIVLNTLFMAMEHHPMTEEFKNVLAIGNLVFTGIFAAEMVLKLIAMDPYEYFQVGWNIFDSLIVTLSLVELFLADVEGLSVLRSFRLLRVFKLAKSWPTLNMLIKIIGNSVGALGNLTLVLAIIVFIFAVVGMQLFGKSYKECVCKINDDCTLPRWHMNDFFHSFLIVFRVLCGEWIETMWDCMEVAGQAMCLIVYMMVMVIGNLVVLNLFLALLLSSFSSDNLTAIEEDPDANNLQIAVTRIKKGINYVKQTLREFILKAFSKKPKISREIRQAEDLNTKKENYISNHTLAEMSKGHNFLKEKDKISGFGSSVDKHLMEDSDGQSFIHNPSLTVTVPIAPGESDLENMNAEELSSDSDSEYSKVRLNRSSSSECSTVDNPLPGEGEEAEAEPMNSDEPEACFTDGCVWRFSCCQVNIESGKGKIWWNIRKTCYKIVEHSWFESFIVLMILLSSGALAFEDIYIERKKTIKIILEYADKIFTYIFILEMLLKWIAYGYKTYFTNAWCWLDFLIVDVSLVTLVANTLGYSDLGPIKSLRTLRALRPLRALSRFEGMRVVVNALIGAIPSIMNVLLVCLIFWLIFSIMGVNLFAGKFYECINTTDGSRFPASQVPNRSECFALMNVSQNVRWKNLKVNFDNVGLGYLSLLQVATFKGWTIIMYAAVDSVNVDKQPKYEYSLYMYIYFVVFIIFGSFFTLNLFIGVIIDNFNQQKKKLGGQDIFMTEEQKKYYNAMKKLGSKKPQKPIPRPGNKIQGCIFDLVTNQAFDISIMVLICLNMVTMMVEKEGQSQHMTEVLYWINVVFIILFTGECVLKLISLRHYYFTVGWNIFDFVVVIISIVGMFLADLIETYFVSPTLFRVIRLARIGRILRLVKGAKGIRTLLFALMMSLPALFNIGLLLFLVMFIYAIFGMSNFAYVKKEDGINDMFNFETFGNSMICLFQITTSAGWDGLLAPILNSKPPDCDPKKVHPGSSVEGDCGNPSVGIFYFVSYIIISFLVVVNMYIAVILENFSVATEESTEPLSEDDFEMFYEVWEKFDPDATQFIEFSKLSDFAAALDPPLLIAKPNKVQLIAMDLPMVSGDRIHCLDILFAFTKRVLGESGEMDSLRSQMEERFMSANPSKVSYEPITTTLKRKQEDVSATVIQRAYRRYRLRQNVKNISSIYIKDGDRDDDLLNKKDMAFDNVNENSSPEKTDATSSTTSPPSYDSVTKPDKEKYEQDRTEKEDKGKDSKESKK
# Experimental: as §1, §4
# [3] = target: T8, human Nav1.5 (pulse 1, tonic inhibition) (Homo sapiens, UniProt Q14524); experiment: Two pulse assay protocol, Nav1.5; settings: HEK293 cells stably expressing human Nav1.5, pH 7.3, peak current, pulse 1 (tonic), read-out: percent inhibition hNav1.5, Pulse 1 (5 uM)
# T8 construct: host or cells: HEK293
# Experimental: as §1, §4
# [4] = target: T9, human Nav1.5 (pulse 2, state-dependent inhibition) (Homo sapiens, UniProt Q14524); experiment: Two pulse assay protocol, Nav1.5; settings: HEK293 cells stably expressing human Nav1.5, pH 7.3, peak current, pulse 2 (state-dependent), read-out: percent inhibition hNav1.5, Pulse 2 (5 uM)
# T9 construct: host or cells: HEK293
# Experimental: as §1, §4
# human Nav1.8 = target: T10, human Nav1.8 (Homo sapiens, UniProt Q9Y5Y9); experiment: Two pulse assay protocol, Nav1.8; settings: peak current
# T10 construct: host or cells: HEK293
# Experimental: as §1, §4
# [5] = pulse 1 (tonic), read-out: percent inhibition hNav1.2, Pulse 1 (5 uM)
# [6] = pulse 2 (state-dependent), read-out: percent inhibition hNav1.2, Pulse 2 (5 uM)
# [7] = pulse 1 (tonic), read-out: percent inhibition hNav1.6, Pulse 1 (5 uM)
# [8] = pulse 2 (state-dependent), read-out: percent inhibition hNav1.6, Pulse 2 (5 uM)
# [9] = pulse 1 (tonic), read-out: percent inhibition hNav1.7, Pulse 1 (5 uM)
# [10] = pulse 2 (state-dependent), read-out: percent inhibition hNav1.7, Pulse 2 (5 uM)
SMILES,"inhibition at 5 min, 5 uM [1]","inhibition at 5 min, 5 µM [2]","inhibition at 5 µM (human Nav1.1; pulse 1 (tonic), read-out: percent inhibition hNav1.1, Pulse 1 (5 uM))","inhibition at 5 µM (human Nav1.1; pulse 2 (state-dependent), read-out: percent inhibition hNav1.1, Pulse 2 (5 uM))",inhibition at 5 µM (human Nav1.2; [5]),inhibition at 5 µM (human Nav1.2; [6]),"inhibition at 5 µM (human Nav1.3; pulse 1 (tonic), read-out: percent inhibition hNav1.3, Pulse 1 (5 uM))","inhibition at 5 µM (human Nav1.3; pulse 2 (state-dependent), read-out: percent inhibition hNav1.3, Pulse 2 (5 uM))",inhibition at 5 µM (human Nav1.6; [7]),inhibition at 5 µM (human Nav1.6; [8]),inhibition at 5 µM (human Nav1.7; [9]),inhibition at 5 µM (human Nav1.7; [10]),"inhibition at 5 min, 5 µM [3]","inhibition at 5 min, 5 µM [4]","inhibition at 5 µM (human Nav1.8; pulse 1 (tonic), read-out: percent inhibition hNav1.8, Pulse 1 (5 uM))","inhibition at 5 µM (human Nav1.8; pulse 2 (state-dependent), read-out: percent inhibition hNav1.8, Pulse 2 (5 uM))"
"CC(C)Oc1ccc(-c2cnc3ccc(-c4ccc(OC(C)C)nc4)cn23)cc1 [Example C12, 2-(propan-2-yloxy)-5-{3-[4-(propan-2-yloxy)phenyl]imidazo[1,2-a]pyridin-6-yl}pyridine]",> 90%,50 to 90%,< 50%,> 90%,< 50%,> 90%,< 50%,> 90%,< 50%,> 90%,< 50%,> 90%,–,–,–,–
"CS(=O)(=O)NC(=O)c1cc2ncc(-c3ccc(OC(F)(F)F)cc3)n2cc1-c1ccc(OC(F)(F)F)cc1 [Example C67, N-(methylsulfonyl)-3,6-bis(4-(trifluoromethoxy)phenyl)imidazo[1,2-a]pyridine-7-carboxamide]",–,–,–,–,–,–,–,–,–,–,< 50%,< 50%,< 50%,< 50%,< 50%,< 50%
"CC(C)Oc1ccc(-c2ccc3ncc(-c4ccc(OC(C)(C)C)cc4)n3c2)cc1 [Example C32, 3-[4-(tert-butoxy)phenyl]-6-[4-(propan-2-yloxy)phenyl]imidazo[1,2-a]pyridine]",> 90%,50 to 90%,–,–,–,–,–,–,< 50%,> 90%,–,–,–,–,–,–
"CC(C)Oc1ccc(-c2ccc3ncc(-c4ccc(Oc5ccccc5)cc4)n3c2)cc1 [Example C72, 6-(4-isopropoxyphenyl)-3-(4-phenoxyphenyl)imidazo[1,2-a]pyridine]",–,–,–,–,< 50%,> 90%,–,–,< 50%,> 90%,< 50%,> 90%,< 50%,50 to 90%,–,–
